Results from ChEMBL document CHEMBL1121775, “Synthesis and antimalarial effects of N2-aryl-N4-[(dialkylamino)alkyl]- and N4-aryl-N2-[(dialkylamino)alkyl]-2,4-quinazolinediamines” (J Med Chem, 1981).
Where “and” joins values, the source holds several entries; their conditions need not be identical. Equal entries are not always repeated.

How the values were obtained:
[1] = test system: Plasmodium berghei; test: Antimalarial effect against trophozoite-induced Plasmodium berghei in mice (Mus musculus) at 320 mg/kg subcutaneous dose; type: functional
[2] = test system: Plasmodium berghei; test: Antimalarial effect against trophozoite-induced Plasmodium berghei in mice (Mus musculus) at 160 mg/kg subcutaneous dose; type: functional
[3] = test system: Mus musculus; test: Number of mice cured at a subcutaneous dose of 320 mg/kg.; type: functional
[4] = test system: Plasmodium berghei; test: Antimalarial activity against trophozoite-induced Plasmodium berghei in mice (Mus musculus); type: functional
[5] = test system: Plasmodium berghei; test: (§1) Antimalarial effect against trophozoite-induced Plasmodium berghei in mice (Mus musculus) at 640 mg/kg subcutaneous dose; type: functional
[6] = The ratio of SD90 of the quinine hydrochloride, to the SD90 of the test substance for the Dose of 18.5 mg/kg; type: functional
[7] = test system: Plasmodium berghei; test: Antimalarial effect against trophozoite-induced Plasmodium berghei in mice (Mus musculus) after 40 mg/kg subcutaneous dose; type: functional
[8] = test system: Plasmodium berghei; test: Antimalarial effect against trophozoite-induced Plasmodium berghei in mice (Mus musculus) after 20 mg/kg subcutaneous dose; type: functional
[9] = test system: Plasmodium berghei; test: Antimalarial effect against trophozoite-induced Plasmodium berghei in mice (Mus musculus) at 80 mg/kg subcutaneous dose; type: functional
[10] = test system: Mus musculus; test: Antimalarial effect against trophozoite-induced Plasmodium berghei in mice (Mus musculus) at dosage of 640 mg/kg after subcutaneous administration; No. of mice (Mus musculus) surviving after 60 days 4; type: functional
[11] = test system: Plasmodium berghei; test: as §1; type: functional; remark: listed apart in the source
[12] = test system: Mus musculus; test: Number of mice cured at a dose of 640 mg/kg sc; type: functional; settings: route subcutaneous
[13] = The ratio of SD90 of the quinine hydrochloride, to the SD90 of the test substance for the Dose of 9.2 mg/kg; type: functional
[14] = The ratio of SD90 of the quinine hydrochloride, to the SD90 of the test substance for the Dose of 82 mg/kg; type: functional
[15] = The ratio of SD90 of the quinine hydrochloride, to the SD90 of the test substance for the Dose of 91 […]; type: functional
[16] = The ratio of SD90 of the quinine hydrochloride, to the SD90 of the test substance for the Dose of mg/kg; type: functional
[17] = test system: Mus musculus; test: Antimalarial effect against trophozoite induced Plasmodium berghei in mice (Mus musculus) at dosage of 160 mg/kg after subcutaneous administration; No. of mice (Mus musculus) surviving after 60 days 1; type: functional
[18] = test system: Mus musculus; test: Number of toxic deaths at a dose of 640 mg/kg; type: toxicity, organism-based; parameters: dose 640 mg/kg; settings: in vivo
[19] = The ratio of SD90 of the quinine hydrochloride, to the SD90 of the test substance for the Dose of 47 mg/kg; type: functional
[20] = test system: Plasmodium berghei; test: Antimalarial activity against trophozoite-induced Plasmodium berghei in mice (Mus musculus) at 160 mg/kg subcutaneous dose; type: functional
[21] = test system: Mus musculus; test: Number of mice cured at a subcutaneous dose of 160 mg/kg.; type: functional
[22] = The ratio of SD90 of the quinine hydrochloride, to the SD90 of the test substance for the Dose of 35 mg/kg; type: functional
[23] = test system: Mus musculus; test: Number of toxic deaths at a dose of 320 mg/kg; type: toxicity, organism-based; parameters: dose 320 mg/kg; settings: in vivo
[24] = The ratio of SD90 of the quinine hydrochloride, to the SD90 of the test substance for the Dose of 22 mg/kg; type: functional
[25] = test system: Mus musculus; test: Antimalarial effect against trophozoite-induced Plasmodium berghei in mice (Mus musculus) at dosage of 20 mg/kg after subcutaneous administration.; type: functional
[26] = The ratio of SD90 of the quinine hydrochloride, to the SD90 of the test substance for the Dose of 97 mg/kg/day; type: functional

In the case of `CN1CCCC1CCNc1nc(Nc2ccc(Cl)c(Cl)c2)nc2ccc(Cl)cc12` (stereo unspecified), the MST [1] is reported as 14.2 days, the MST ([2]; 160 mg/kg) is reported as 6.1 days and 2.5 days and the No. of survivals [3] is reported as 2. It also gave an SD90 [4] of 18.5 mg/kg/day, an MST [5] of 13.6 days and a Ratio [6] of 4. For the same compound, the MST ([7]; 40 mg/kg) was 1.1 days and 0.5 days, the MST [8] was 0.5 days and the MST [9] was 2.7 days.

For `CCN(CC)CCNc1nc(Nc2ccc(Cl)c(Cl)c2)nc2cc([N+](=O)[O-])ccc12`, the MST [10] was 21.9 days, the MST [1] was 9.5 days and the MST ([2]; 160 mg/kg) was 0.9 days and 1.1 days. It also gave an SD90 [4] of 9.2 mg/kg/day, an MST [11] of 26.9 days and a No. of survivals [12] of 3. It also gave a Ratio [13] of 8.1, an MST [7] of 0.3 days and an MST [8] of 0.3 days. It also gave an MST [9] of 0.9 days.

In the case of `CCN(CC)CCNc1nc(Nc2ccc(Cl)c(Cl)c2)nc2cc(NCc3ccc(Cl)c(Cl)c3)ccc12`, the MST ([1]; 320 mg/kg) is reported as 1.7 days and 2 days and 2.5 days, the MST ([2]; 160 mg/kg) is reported as 1.3 days and 1 days and 0.7 days and the SD90 [4] is reported as 82 mg/kg/day. For the same compound, the MST [5] was 8.9 days, the Ratio [14] was 0.9 and the MST ([7]; 40 mg/kg) was 0.1 days and 0.2 days and 0.3 days. For the same compound, the MST ([8]; 20 mg/kg) was 0.1 days and 0.2 days and 0.3 days and the MST ([9]; 80 mg/kg) was 0.3 days and 0.6 days.

In the case of `Brc1cccc(Nc2nc(NCCN3CCCC3)c3ccccc3n2)c1`, the MST [1] is reported as 5 days, the MST ([2]; 160 mg/kg) is reported as 4.4 days and 4 days and the SD90 [4] is reported as 91 mg/kg/day. For the same compound, the MST ([5]; 640 mg/kg) was 8.4 days and 8.1 days, the Ratio [15] was 0.8 and the MST [8] was 0.2 days. The MST [9] was 0.4 days.

In the case of `CCN(CC)CCNc1nc(Nc2ccc(Cl)c(Cl)c2)nc2cc(N)ccc12`, the MST ([1]; 320 mg/kg) is reported as 16.8 days and 16.9 days, the MST ([2]; 160 mg/kg) is reported as 13.2 days and 13.5 days and the No. of survivals [3] is reported as 3. It also gave an SD90 [4] of 30.5 mg/kg/day, a Ratio [16] of 30.5 and an MST [11] of 29.8 days. For the same compound, the No. of survivals [12] was 4, the MST ([7]; 40 mg/kg) was 3.2 days and 3.5 days and the MST ([8]; 20 mg/kg) was 0.6 days and 0.9 days. The MST ([9]; 80 mg/kg) was 6 days and 6.3 days.

For `CCN(CC)CCNc1nc(Nc2ccc(Cl)c(Cl)c2)c2ccccc2n1`, the MST [1] was 3.2 days, the MST [2] was 0.9 days and the MST ([5]; 640 mg/kg) was 10.3 days and 5.4 days and 5.9 days. For the same compound, the MST [17] was 0.2 days, the MST [8] was 0.2 days and the MST [9] was 0.2 days.

For `CCN(CC)CCNc1nc(Nc2ccc(Cl)c(Cl)c2)nc2ccc(N)cc12`, the No. of survivals [3] was 5, the SD90 [4] was 47 mg/kg/day and the “No. of toxic deaths” value [18] was 2. For the same compound, the Ratio [19] was 1.6, the MST [20] was 29.8 days and the No. of survivals [12] was 3. For the same compound, the MST [7] was 3.8 days, the MST ([8]; 20 mg/kg) was 1.6 days and 2 days and the No. of survivals [21] was 4. The MST [9] was 6.8 days.

For `CSc1ccc(Nc2nc(NCCN3CCCC3)c3ccccc3n2)cc1`, the MST [1] was 10.3 days, the MST ([2]; 160 mg/kg) was 5.9 days and 4.7 days and the SD90 [4] was 35 mg/kg/day. For the same compound, the MST ([7]; 40 mg/kg) was 0.9 days and 0.3 days, the MST [8] was 0.7 days and the Ratio [22] was 2.1. For the same compound, the MST [9] was 3.3 days.

For `CCN(CC)CCNc1nc(Nc2ccc(Cl)cc2)nc2ccccc12`, the “No. of toxic deaths” value [23] was 2, the MST [2] was 11.1 days and the No. of survivals [3] was 3. For the same compound, the SD90 [4] was 35 mg/kg/day, the No. of survivals [12] was 5 and the MST ([7]; 40 mg/kg) was 4.1 days and 4.6 days. For the same compound, the MST [8] was 1.6 days, the Ratio [22] was 2.1 and the No. of survivals [21] was 2. The MST [9] was 6.2 days.

For `FC(F)(F)c1ccc(Nc2nc(NCCCN3CCCC3)c3cc(Cl)ccc3n2)cc1`, the MST [1] was 14.6 days, the Ratio [24] was 3.4 and the MST ([2]; 160 mg/kg) was 4.6 days and 4 days. For the same compound, the No. of survivals [3] was 1, the SD90 [4] was 22 mg/kg/day and the MST ([11]; 640 mg/kg) was 26.5 days and 23.3 days. The No. of survivals ([12]; 640 mg/kg) was 2 and 3, the MST [7] was 0.4 days and the MST [8] was 0.2 days. The MST [25] was 0.4 days and the MST [9] was 1.6 days.

For `Clc1cccc(Nc2nc(NCCN3CCCC3)c3ccccc3n2)c1`, the MST [1] was 4.2 days, the MST ([2]; 160 mg/kg) was 2.8 days and 3.5 days and the SD90 [4] was 97 mg/kg/day. The MST ([5]; 640 mg/kg) was 10.2 days and 11.1 days, the Ratio [26] was 0.8 and the MST ([7]; 40 mg/kg) was 0.6 days and 0.7 days. It also gave an MST [8] of 0.4 days and an MST [9] of 1.4 days.
